Like-named read-outs stand apart in the source and are kept apart here. Residues, ends and D or L forms follow the SMILES beside them. *: point of attachment. Cbz = O=C(OCc1ccccc1)*
Columns and labels:
[1] = target: T1, RCOR1, LSD1, HDAC2 in OCI-AML1 cells (Homo sapiens, UniProt O60341+Q92769+Q9UKL0); assay: Western Blot of CoREST members; type: cell-based; conditions: OCI-AML1, UM171 250 nM plus MG132 10 μM or MLN2494 100 nM
T1 construct: nucleoplasmic proteins extracted from shLuc or shKBTBD4- transduced OCI-AML1 cells; endogenous in cells; host or cells: OCI-AML1 cells transduced with shLuc or shKBTBD4
Experimental: Representative blots (upper panel) showing KBTBD4, RCOR1, LSD1, HDAC2 and Nucleolin (NCL, loading control) protein levels. Quantification of RCOR1 protein levels were evaluated in 3 independent experiments (lower panel).
Representative blots (upper panel) showing CUL3, RCOR1 and TUBA (loading control) protein levels. Quantification of RCOR1 protein levels were evaluated in 2 independent experiments (lower panel).
(§1) Total protein extraction was performed in lysis buffer (25 mM tris ph7.5, 150 mM NaCl, 1% NP-40, protease inhibitors).

[2] = target: T2, RCOR1, LSD1, HDAC2 in CD34+ derived cord blood cells (Homo sapiens, UniProt O60341+Q92769+Q9UKL0); assay: Western Blot of CoREST members in CD34+ cells; type: cell-based; conditions: UM171 500 nM / MG132 5 μM, 4 hrs
T2 construct: total proteins extracted from d3 expanded CD34+ derived cord blood cells; endogenous in cells; host or cells: d3 expanded human CD34+ cord blood derived cells (primary)
Experimental: FIG. 15A illustrate a Western Blot analysis of total proteins extracted from d3 expanded CD34+ derived cord blood cells exposed to DMSO, UM171 (500 nM) or UM171/MG132 (5 μM) for 4 hrs. Representative blot showing KBTBD4, RCOR1, LSD1, HDAC2, CUL3 and TUBA as loading control.
as §1

CB = assay: Cell proliferation, CB sample of Table 2; conditions: read-out: Antineoplastic effect on cell proliferation, IC50
AML samples = assay: Cell proliferation of cancerous samples from patients

In the case of CC(C)C[C@@H](C=O)NC(=O)[C@H](CC(C)C)NC(=O)[C@H](CC(C)C)NC(=O)OCc1ccccc1 [MG132] (Cbz-Leu-Leu-Leu-aldehyde), the “UM171-induced loss of RCOR1 under co-treatment” value [1] is reported as “reduced” and the “UM171-induced loss of LSD1 and RCOR1 proteins under co-treatment” value [2] is reported as “abolishes the loss”.
With COC(=O)c1ccc2[nH]c3nc(Cc4ccccc4)nc(NCCCN4CCCCC4)c3c2c1 [UM134] the IC50 (CB) was 1 to 10 µM, the IC50 (AML samples; read-out: Antineoplastic effect on cell proliferation, IC50, AML sample 04H063) was 1 to 10 µM and the IC50 (AML samples; read-out: Antineoplastic effect on cell proliferation, IC50, AML sample 05H094) was 1 to 10 µM. The IC50 (AML samples; read-out: Antineoplastic effect on cell proliferation, IC50, AML sample 05H149) was 1 to 10 µM, the IC50 (AML samples; read-out: Antineoplastic effect on cell proliferation, IC50, AML sample 06H045) was 1 to 10 µM and the IC50 (AML samples; read-out: Antineoplastic effect on cell proliferation, IC50, AML sample 06H088) was 1 to 10 µM. The IC50 (AML samples; read-out: Antineoplastic effect on cell proliferation, IC50, AML sample 06H117) was 1 to 10 µM, the IC50 (AML samples; read-out: Antineoplastic effect on cell proliferation, IC50, AML sample 07H005) was 1 to 10 µM and the IC50 (AML samples; read-out: Antineoplastic effect on cell proliferation, IC50, AML sample 07H038) was 1 to 10 µM. For the same compound, the IC50 (AML samples; read-out: Antineoplastic effect on cell proliferation, IC50, AML sample 07H045) was 1 to 10 µM, the IC50 (AML samples; read-out: Antineoplastic effect on cell proliferation, IC50, AML sample 07H125) was 1 to 10 µM and the IC50 (AML samples; read-out: Antineoplastic effect on cell proliferation, IC50, AML sample 07H135) was 1 to 10 µM. For the same compound, the IC50 (AML samples; read-out: Antineoplastic effect on cell proliferation, IC50, AML sample 07H151) was 1 to 10 µM, the IC50 (AML samples; read-out: Antineoplastic effect on cell proliferation, IC50, AML sample 08H018) was 1 to 10 µM and the IC50 (AML samples; read-out: Antineoplastic effect on cell proliferation, IC50, AML sample 09H010) was 1 to 10 µM. It also gave an IC50 (AML samples; read-out: Antineoplastic effect on cell proliferation, IC50, AML sample 09H046) of 1 to 10 µM, an IC50 (AML samples; read-out: Antineoplastic effect on cell proliferation, IC50, AML sample 09H079) of 1 to 10 µM and an IC50 (AML samples; read-out: Antineoplastic effect on cell proliferation, IC50, AML sample 09H115) of 1 to 10 µM. For the same compound, the IC50 (AML samples; read-out: Antineoplastic effect on cell proliferation, IC50, AML sample 10H022) was 1 to 10 µM, the IC50 (AML samples; read-out: Antineoplastic effect on cell proliferation, IC50, AML sample 10H127) was 1 to 10 µM and the IC50 (AML samples; read-out: Antineoplastic effect on cell proliferation, IC50, AML sample 11H002) was 1 to 10 µM. For the same compound, the IC50 (AML samples; read-out: Antineoplastic effect on cell proliferation, IC50, AML sample 11H046) was 1 to 10 µM, the IC50 (AML samples; read-out: Antineoplastic effect on cell proliferation, IC50, AML sample 11H103) was 1 to 10 µM and the IC50 (AML samples; read-out: Antineoplastic effect on cell proliferation, IC50, AML sample 12H045) was 1 to 10 µM. The IC50 (AML samples; read-out: Antineoplastic effect on cell proliferation, IC50, AML sample 12H058) was 1 to 10 µM, the IC50 (AML samples; read-out: Antineoplastic effect on cell proliferation, IC50, AML sample 12H096) was 1 to 10 µM and the IC50 (AML samples; read-out: Antineoplastic effect on cell proliferation, IC50, AML sample 12H106) was 1 to 10 µM. It also gave an IC50 (AML samples; read-out: Antineoplastic effect on cell proliferation, IC50, AML sample 12H151) of 1 to 10 µM, an IC50 (AML samples; read-out: Antineoplastic effect on cell proliferation, IC50, AML sample 13H100) of 1 to 10 µM and an IC50 (AML samples; read-out: Antineoplastic effect on cell proliferation, IC50, AML sample 13H150) of 1 to 10 µM.

Source: patent US20230073512A1, “MODULATORS OF CULLIN 3 ADAPTOR KBTBD4 AS ANTI-CANCER COMPOUNDS” (UNIVERSITE DE MONTREAL, priority 2019, published 2023)
